Where a name gives a salt, the structure may show the parent alone.
Tested on: HCT116
Details: 72 h
Procedure, shortened: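 HCT116 cells were seeded at 250 per well in 1536-well plates with 5 h allowed for attachment. CellTiter-Glo luminescence was normalized against vehicle (0%) and positive control (-100%) before pattern correction. The IC50 and maximal efficacy figures derive from four-parameter Hill fits.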

| SMILES | IC50 cell viability (ICRF193 0 nM) [µM] | IC50 cell viability (ICRF193 200 nM) [µM] |
| --- | --- | --- |
| O=C(NNCS(=O)(=O)O)c1ccncc1 [Isoniazid sodium methanesulfonate] | > 45.8 | > 45.8 |
| NNC(=O)c1ccncc1 [Isoniazid] | > 45.8 | > 45.8 |
| CC(C)NCC(O)c1ccc(O)c(O)c1 (centres undefined) [Isoprenaline hydrochloride] | > 45.8 | > 45.8 |
| CC(C)[N+](C)(CCC(C(N)=O)(c1ccccc1)c1ccccc1)C(C)C [Isopropamide] | > 45.8 | > 45.8 |
| CCCCCCCCCCCCCC(=O)OC(C)C [Isopropyl tetradecanoic acid] | > 45.8 | > 45.8 |
| O=[N+]([O-])O[C@H]1CO[C@H]2[C@@H]1OC[C@H]2O[N+](=O)[O-] [Isosorbide dinitrate] | > 45.8 | > 45.8 |
| O=[N+]([O-])O[C@@H]1CO[C@H]2[C@@H]1OC[C@@H]2O [Isosorbide mononitrate] | > 45.8 | > 45.8 |
| O[C@@H]1CO[C@H]2[C@@H]1OC[C@@H]2O [Isosorbide] | > 45.8 | > 45.8 |
| CC1=C(/C=C/C(C)=C/C=C/C(C)=C\C(=O)O)C(C)(C)CCC1 [Isotretinoin] | > 45.8 | > 45.8 |
| CN1[C@@H]2CC[C@H]1C[C@@H](NC(=O)n1c(=O)[nH]c3ccccc31)C2 [Itasetron] | > 45.8 | > 45.8 |
| C=C(C)[C@H]1CN[C@H](C(=O)O)[C@H]1CC(=O)O [Kainic acid] | > 45.8 | > 45.8 |
| NC[C@H]1O[C@H](O[C@H]2[C@H](O)[C@@H](O[C@H]3O[C@H](CO)[C@@H](O)[C@H](N)[C@H]3O)[C@H](N)C[C@@H]2N)[C@H](O)[C@@H](O)[C@@H]1O [Kanamycin (sulfate)] | > 45.8 | > 45.8 |
| O=C(c1ccccc1)c1ccc2n1CCC2C(=O)O (centres undefined) [Ketorolac] | > 45.8 | > 45.8 |
| O=c1cc(CO)occ1O [Kojic acid] | > 45.8 | > 45.8 |
| Cl.NCCCC[C@H](N)C(=O)O [L-(+)-Lysine monohydrochloride] | > 45.8 | > 45.8 |
| N=C(N)NCCC[C@H](N)C(=O)O [L-Arginine] | > 45.8 | > 45.8 |
| O=C1O[C@H]([C@@H](O)CO)C(O)=C1O [L-Ascorbic acid] | > 45.8 | > 45.8 |
| CCCCCCCCCCCCCCCC(=O)OC[C@H](O)[C@H]1OC(=O)C(O)=C1O [L-Ascorbyl 6-palmitate] | > 45.8 | > 45.8 |
| CCOC(=O)[C@@H](N)CS [L-Cysteine ethyl ester hydrochloride] | > 45.8 | > 45.8 |
| COC(=O)[C@@H](N)CS [L-Cysteine methyl ester hydrochloride] | > 45.8 | > 45.8 |
| N[C@@H](CSSC[C@H](N)C(=O)O)C(=O)O [L-Cystine] | > 45.8 | > 45.8 |

The remaining lines, values ahead:

| IC50 cell viability (ICRF193 0 nM) [µM] | IC50 cell viability (ICRF193 200 nM) [µM] | SMILES |
| --- | --- | --- |
| > 45.8 | > 45.8 | CC(CN1c2ccccc2Sc2cccnc21)N(C)C (centres undefined) [Isothipendyl hydrochloride] |
| > 45.8 | > 45.8 | CC(COc1ccccc1)NC(C)C(O)c1ccc(O)cc1 (centres undefined) [Isoxsuprine hydrochloride] |
| > 45.8 | > 45.8 | COC(=O)C1=C(C)NC(C)=C(C(=O)OC(C)C)C1c1cccc2nonc12 (centres undefined) [Isradipine] |
| > 45.8 | > 45.8 | CCn1c(=O)c2c(nc(/C=C/c3ccc(OC)c(OC)c3)n2C)n(CC)c1=O [Istradefylline] |
| > 45.8 | > 45.8 | COc1ccc(C(=O)NCc2ccc(OCCN(C)C)cc2)cc1OC [Itopride hydrochloride] |
| > 45.8 | > 45.8 | CCC(C)n1ncn(-c2ccc(N3CCN(c4ccc(OCC5COC(Cn6cncn6)(c6ccc(Cl)cc6Cl)O5)cc4)CC3)cc2)c1=O (centres undefined) [Itraconazole] |
| > 45.8 | > 45.8 | COc1cc2c(cc1OC)CC(=O)N(CCCN(C)C[C@H]1Cc3cc(OC)c(OC)cc31)CC2 [Ivabradine hydrochloride] |
| > 45.8 | > 45.8 | Cc1oc(-c2ccccc2)nc1CCOc1ccc(CC2C(=O)NOC2=O)cc1 (centres undefined) [JTT-501] |
| > 45.8 | > 45.8 | CC(=O)CCC1C(=O)N(c2ccccc2)N(c2ccccc2)C1=O [Kebuzone] |
| > 45.8 | > 45.8 | O=C(c1ccc(F)cc1)C1CCN(CCn2c(=O)[nH]c3ccccc3c2=O)CC1 [Ketanserin] |
| > 45.8 | > 45.8 | CN1CCC(=C2c3ccccc3CC(=O)c3sccc32)CC1 [Ketotifen] |

— the supplement of paper PMC12137928
